According to patent US20130261077A1 (priority 2012, published 2013):

molecular target: T1, FimH-CRD (Escherichia coli, UniProt P08191); assay: Competitive binding assay by fluorescence polarization, assay 1 (compounds prepared by manual serial dilution)
T1 construct: The first 177 amino acids of the FimH protein; thrombin tag (printed as 'fusion protein with thrombin') (cleaved yes); made in house; host or cells: bacteria (pET21b plasmid)
In short: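 Fluorescence-polarization competition of 5 nM Alexa 647 mannoside probe with 60 nM FimH-CRD (first 177 residues, tag removed) in Tris-Cl pH 7.0, NaCl, EDTA, β-ME, BSA, 2.5% DMSO, 5 h at RT in the dark. Twelve-point 3-fold titrations (0.4 nM–75 μM) in duplicate; Kd interpolated from displacement curves.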

T1 sequence (P08191 22-177): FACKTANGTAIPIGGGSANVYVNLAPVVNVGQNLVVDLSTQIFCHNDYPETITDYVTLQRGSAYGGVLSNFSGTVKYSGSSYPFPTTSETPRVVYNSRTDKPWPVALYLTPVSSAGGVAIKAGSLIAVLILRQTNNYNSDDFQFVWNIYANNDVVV

In the case of `CNC(=O)c1ccc(-c2ccc([C@H]3O[C@H](CO)[C@@H](O)[C@H](O)[C@@H]3O)cc2)cc1` [Compound 296, N-methyl-4′-((2R,3S,4R,5S,6R)-3,4,5-trihydroxy-6-(hydroxymethyl)tetrahydro-2H-pyran-2-yl)-[1,1′-biphenyl]-4-carboxamide], the Kd is reported as 5 ± 0.4 nM.

molecular target: T1, FimH-CRD; assay: Competitive binding assay by fluorescence polarization, assay 2 (compounds prepared by robotics, plates frozen and thawed)
Procedure: The first 177 amino acids of the FimH protein were expressed as a fusion protein with thrombin in a pET21b plasmid in bacteria. This FimH protein sequence contains the carbohydrate recognition domain (CRD) and shall be termed FimH-CRD. Following bacterial expression of the protein, the FimH-CRD protein was purified to homogeneity and the thrombin tag removed by protease cleavage. A competitive binding assay by fluorescence polarization was performed using 5 nM of the Alexa 647 mannoside probe and 60 nM of the FimH-CRD. The samples are assayed in a low volume 384 well microtiter plate in a final volume of 20 μl. The final assay buffer conditions are the following, 50 mM Tris-Cl, ph 7.0, 100 mM NaCl, 1 mM EDTA, 5 mM β-mercaptoethanol, 0.05% BSA and 2.5% DMSO. Two assays are performed for FimH, termed assay 1 or assay 2. The assay conditions are the same for both assays except the following: assay 1 has compounds prepared by manual dilution in a serial dilution factor with 12-point dose response while assay 2 has compounds prepared by a robotics system also through a serial dilution factor (12 point dose response) and initially prepared in duplicate in 384 well-Corning polypropylene round bottom plates. The assay 2 plates have compound which is then frozen and must be thawed prior to use. Initially the Alexa 647 probe and the FimH-CRD are added to the assay buffer and then 0.5 μl of test compound (assay 1 or 2) between 0.4 nM to 75 μM final concentration are added (12 point titration with 3-fold serial dilution). Control wells for the Alexa 647 probe are prepared with the same conditions except for the addition of the FimH-CRD protein. Plates are then incubated for 5 hrs at room temperature in the dark and under humid conditions to prevent drying. Plates are read using the SpectraMax Paradigm multi-mode plate reader and the appropriate fluorescent polarization detection cartridge (Alexa-647).
Alexa 647 mannoside probe is prepared using the similar procedure reported for FAM mannoside (Han, Z. et. al., 2010, J. Med. Chem., 53, 4779) and is described in the scheme below.
To a blue colored stirred solution of (2S,3S,4S,5S,6R)-2-(4-aminobutoxy)-6-(hydroxymethyl)tetrahydropyran-3,4,5-triol (2.21 mg, 0.009 mmol) and the (2E)-2-[(2E,4E)-5-[3,3-dimethyl-5-sulfonato-1-(3-sulfonatopropyl)indol-1-ium-2-yl]penta-2,4-dienylidene]-3-[6-(2,5-dioxopyrrolidin-1-yl)oxy-6-oxo-hexyl]-3-methyl-1-(3-sulfonatopropyl)indoline-5-sulfonate (Potassium Ion (3)) (4.9 mg, 0.0044 mmol) in DMF (44 μL) is added Et3N (5.4 mg, 7.0 μL, 0.053 mmol) at RT. The solution is stirred at room temperature over night, concentrated, dissolved in water and purified on 12 g C-18 silica gel cartridge on Isolera system using acetonitrile in water (0 to 40%, 10 CV) and followed by lyophilization to afford Alexa 647 mannoside probe (3.3 mg, 34%) as deep blue solid.
The Kd values of the compounds are determined from dose response curves using twelve concentrations per compound in duplicate. Curves are fitted to data points using Fluorescence Polarization competitive displacement analysis, and Kds are interpolated from the resulting curves using GraphPad Prism software, version […] (GraphPad software Inc., San Diego, Calif., USA).

`C#Cc1cccc([C@H]2O[C@H](CO)[C@@H](O)[C@H](O)[C@@H]2O)c1` [Compound 73, ((2R,3S,4R,5S,6R)-2-(3-Ethynylphenyl)-6-(hydroxymethyl)tetrahydropyran-3,4,5-triol)] and `C#Cc1ccc([C@H]2O[C@H](CO)[C@@H](O)[C@H](O)[C@@H]2O)cc1` [Compound 74, (2R,3S,4R,5S,6R)-2-(4-Ethynylphenyl)-6-(hydroxymethyl)tetrahydropyran-3,4,5-triol] are within error of each other in Kd: 33.8 ± 13.6 nM for the first, 26.4 ± 14.3 nM for the second.

First: C#Cc1cc([C@H]2O[C@H](CO)[C@@H](O)[C@H](O)[C@@H]2O)ccc1OC [Compound 75, (2R,3S,4R,5S,6R)-2-(3-Ethynyl-4-methoxy-phenyl)-6-(hydroxymethyl)tetrahydropyran-3,4,5-triol]
Second: COc1cc([C@H]2O[C@H](CO)[C@@H](O)[C@H](O)[C@@H]2O)ccc1Br [Compound 77]
The Kd of the first is 2-fold lower: 40 ± 11.3 nM for the first, 81.7 ± 11 nM for the second.

First: Cc1c(Br)cccc1[C@H]1O[C@H](CO)[C@@H](O)[C@H](O)[C@@H]1O [Compound 76, (2R,3S,4R,5S,6R)-2-(3-Bromo-2-methyl-phenyl)-6-(hydroxymethyl)tetrahydropyran-3,4,5-triol]
Second: CNC(=O)c1cc(C#Cc2cccc([C@H]3O[C@H](CO)[C@@H](O)[C@H](O)[C@@H]3O)c2C)cc(C(=O)NC)c1 [Compound 90, N1,N3-Dimethyl-5-[2-[2-methyl-3-[(2R,3S,4R,5S,6R)-3,4,5-trihydroxy-6-(hydroxymethyl)tetrahydropyran-2-yl]phenyl]ethynyl]benzene-1,3-dicarboxamide]
The Kd of the first is 1.9-fold higher: 38.9 ± 13 nM for the first, 20.3 ± 2.2 nM for the second. The second binds more tightly here.

`COC(=O)c1cccc(Cn2cc(-c3ccc([C@H]4O[C@H](CO)[C@@H](O)[C@H](O)[C@@H]4O)cc3)nn2)c1` [Compound 80, Methyl 3-[[4-[4-[(2R,3S,4R,5S,6R)-3,4,5-trihydroxy-6-(hydroxymethyl)tetrahydropyran-2-yl]phenyl]triazol-1-yl]methyl]benzoate] and `OC[C@H]1O[C@H](c2ccc(-c3cn(Cc4ccccc4)nn3)cc2)[C@@H](O)[C@@H](O)[C@@H]1O` [Compound 81, (2R,3S,4R,5S,6R)-2-[4-(1-Benzyltriazol-4-yl)phenyl]-6-(hydroxymethyl)tetrahydropyran-3,4,5-triol] are within error of each other in Kd: 12.3 ± 6.2 nM for the first, 15.2 ± 4.3 nM for the second.

`COC(=O)c1cc(C#Cc2cc([C@H]3O[C@H](CO)[C@@H](O)[C@H](O)[C@@H]3O)ccc2OC)cc(C(=O)OC)c1` [Compound 82, Dimethyl 5-[2-[2-methoxy-5-[(2R,3S,4R,5S,6R)-3,4,5-trihydroxy-6-(hydroxymethyl)tetrahydropyran-2-yl]phenyl]ethynyl]benzene-1,3-dicarboxylate] and `CNC(=O)c1cc(C#Cc2cc([C@H]3O[C@H](CO)[C@@H](O)[C@H](O)[C@@H]3O)ccc2OC)cc(C(=O)NC)c1` [Compound 84, 5-[2-[2-Methoxy-5-[(2R,3S,4R,5S,6R)-3,4,5-trihydroxy-6-(hydroxymethyl)tetrahydropyran-2-yl]phenyl]ethynyl]-N1,N3-dimethyl-benzene-1,3-dicarboxamide] are within error of each other in Kd: 23.2 ± 15.1 nM for the first, 27.5 ± 3.9 nM for the second.

Compared with `CNC(=O)c1cccc(C#Cc2cc([C@H]3O[C@H](CO)[C@@H](O)[C@H](O)[C@@H]3O)ccc2OC)c1` [Compound 83, 3-[2-[2-Methoxy-5-[(2R,3S,4R,5S,6R)-3,4,5-trihydroxy-6-(hydroxymethyl)tetrahydropyran-2-yl]phenyl]ethynyl]-N-methyl-benzamide], `CNC(=O)c1cccc(C#Cc2cccc([C@H]3O[C@H](CO)[C@@H](O)[C@H](O)[C@@H]3O)c2)c1` [Compound 93, N-Methyl-3-[2-[3-[(2R,3S,4R,5S,6R)-3,4,5-trihydroxy-6-(hydroxymethyl)tetrahydropyran-2-yl]phenyl]ethynyl]benzamide] is 4.3-fold lower in Kd: 32.2 ± 5.8 nM for the first, 7.5 ± 2.5 nM for the second.

Going from `CNC(=O)c1cc(C#Cc2cccc([C@H]3O[C@H](CO)[C@@H](O)[C@H](O)[C@@H]3O)c2)cc(C(=O)NC)c1` [Compound 85, N1,N3-Dimethyl-5-[2-[3-[(2R,3S,4R,5S,6R)-3,4,5-trihydroxy-6-(hydroxymethyl)tetrahydropyran-2-yl]phenyl]ethynyl]benzene-1,3-dicarboxamide] to `CNC(=O)c1cc(/C=C/Cc2cccc([C@H]3O[C@H](CO)[C@@H](O)[C@H](O)[C@@H]3O)c2)cc(C(=O)NC)c1` [Compound 94, N1,N3-Dimethyl-5-[(E)-3-[3-[(2R,3S,4R,5S,6R)-3,4,5-trihydroxy-6-(hydroxymethyl)tetrahydropyran-2-yl]phenyl]prop-1-enyl]benzene-1,3-dicarboxamide], the Kd rises from under 5 nM to 94.4 ± 13 nM.

First: COC(=O)c1cccc(C#Cc2cccc([C@H]3O[C@H](CO)[C@@H](O)[C@H](O)[C@@H]3O)c2)c1 [Compound 86, Methyl 3-[2-[3-[(2R,3S,4R,5S,6R)-3,4,5-trihydroxy-6-(hydroxymethyl)tetrahydropyran-2-yl]phenyl]ethynyl]benzoate]
Second: COC(=O)c1ccc(C#Cc2cccc([C@H]3O[C@H](CO)[C@@H](O)[C@H](O)[C@@H]3O)c2)cc1 [Compound 87, Methyl 4-[2-[3-[(2R,3S,4R,5S,6R)-3,4,5-trihydroxy-6-(hydroxymethyl)tetrahydropyran-2-yl]phenyl]ethynyl]benzoate]
The Kd of the first is 3.5-fold higher: 23.7 ± 10.8 nM for the first, 6.8 ± 0.2 nM for the second.

`COC(=O)c1cccc(C#Cc2ccc([C@H]3O[C@H](CO)[C@@H](O)[C@H](O)[C@@H]3O)cc2)c1` [Compound 88, Methyl 3-[2-[4-[(2R,3S,4R,5S,6R)-3,4,5-trihydroxy-6-(hydroxymethyl)tetrahydropyran-2-yl]phenyl]ethynyl]benzoate] and `COC(=O)c1ccc(C#Cc2ccc([C@H]3O[C@H](CO)[C@@H](O)[C@H](O)[C@@H]3O)cc2)cc1` [Compound 89, Methyl 4-[2-[4-[(2R,3S,4R,5S,6R)-3,4,5-trihydroxy-6-(hydroxymethyl)tetrahydropyran-2-yl]phenyl]ethynyl]benzoate] are within error of each other in Kd: 11.8 ± 7.9 nM for the first, 14.5 ± 2.2 nM for the second.

`OC[C@H]1O[C@H](c2cccc(C#Cc3ccccc3)c2)[C@@H](O)[C@@H](O)[C@@H]1O` [Compound 91, (2R,3S,4R,5S,6R)-2-(Hydroxymethyl)-6-[3-(2-phenylethynyl)phenyl]tetrahydropyran-3,4,5-triol] and `OC[C@H]1O[C@H](c2cccc(C/C=C/c3ccccc3)c2)[C@@H](O)[C@@H](O)[C@@H]1O` [Compound 96, (2R,3S,4R,5S,6R)-2-[3-[(E)-Cinnamyl]phenyl]-6-(hydroxymethyl)tetrahydropyran-3,4,5-triol] are within error of each other in Kd: 23.6 ± 8.7 nM for the first, 29 ± 2.3 nM for the second.

`OC[C@H]1O[C@H](c2cccc(C/C=C/c3cc(Cl)cc(Cl)c3)c2)[C@@H](O)[C@@H](O)[C@@H]1O` [Compound 95, (2R,3S,4R,5S,6R)-2-[3-[(E)-3-(3,5-Dichlorophenyl)allyl]phenyl]-6-(hydroxymethyl)tetrahydropyran-3,4,5-triol] and `OC[C@H]1O[C@H](c2cccc(CCCc3cc(Cl)cc(Cl)c3)c2)[C@@H](O)[C@@H](O)[C@@H]1O` [Compound 98, (2R,3S,4R,5S,6R)-2-[3-[3-(3,5-Dichlorophenyl)propyl]phenyl]-6-(hydroxymethyl)tetrahydropyran-3,4,5-triol] are within error of each other in Kd: 34 ± 7.8 nM for the first, 27.8 ± 2.1 nM for the second.

Molecule `CNC(=O)c1cc(CCCc2cccc([C@H]3O[C@H](CO)[C@@H](O)[C@H](O)[C@@H]3O)c2)cc(C(=O)NC)c1` [Compound 97, N1,N3-Dimethyl-5-[3-[3-[(2R,3S,4R,5S,6R)-3,4,5-trihydroxy-6-(hydroxymethyl)tetrahydropyran-2-yl]phenyl]propyl]benzene-1,3-dicarboxamide] has a Kd of 31.6 ± 17.5 nM.
